Assay results reported in patent US20220386606A1, “SPECIFICALLY SUBSTITUTED 3-PHENYL-5-SPIROCYCLOPENTYL-3-PYRROLIN-2-ONES AND THEIR USE AS HERBICIDES” (Bayer Aktiengesellschaft, priority 2019, published 2022).

Columns and labels:
LOLRI [1] = assay: Post-emergence herbicidal action against LOLRI; type: in vivo, Lolium rigidum; conditions: 80 g/ha, visual assessment about 3 weeks after treatment vs untreated controls
Method in brief: (§1)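 Weeds were grown in sandy loam in a greenhouse and treated at the one-leaf stage, 2 to 3 weeks after sowing. WP or EC formulations were sprayed onto green parts at 600 to 800 l/ha water with 0.2% wetting agent. Visual % action versus untreated controls was scored after about 3 weeks.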

ALOMY [2] = assay: Post-emergence herbicidal action against ALOMY; type: in vivo, Alopecurus myosuroides; conditions: 80 g/ha, visual assessment after about 3 weeks
Method in brief: as §1

SETVI [3] = assay: Post-emergence herbicidal action against SETVI; type: in vivo, Setaria viridis; conditions: 80 g/ha, visual assessment about 3 weeks after treatment vs untreated controls
Method in brief: as §1

VERPE [4] = assay: Pre-emergence herbicidal action against VERPE; type: in vivo, Veronica persica; conditions: 320 g/ha
Method in brief: (§2)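 Weed and crop seeds sown in sandy loam, then WP or EC formulations sprayed onto covering soil pre-emergence as aqueous suspension or emulsion at 600 to 800 L/ha water with 0.2% wetting agent. Greenhouse-grown; visual damage scored after 3 weeks versus untreated controls, 0–100%.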

LOLRI [5] = assay: Pre-emergence herbicidal action against LOLRI (Table 8, titled post-emergence at 320 g/ha); type: in vivo, Lolium rigidum; conditions: table stands in the pre-emergence section
Method in brief: as §2

POLCO [6] = assay: Pre-emergence herbicidal action against POLCO; type: in vivo, Polygonum convolvulus; conditions: 320 g/ha
Method in brief: as §2

DIGSA [7] = assay: Post-emergence herbicidal action against DIGSA; type: in vivo, Digitaria sanguinalis; conditions: 80 g/ha, visual assessment about 3 weeks after treatment vs untreated controls
Method in brief: as §1

ALOMY [8] = assay: Pre-emergence herbicidal action against ALOMY; type: in vivo, Alopecurus myosuroides; conditions: 320 g/ha, scored visually after 3 weeks vs untreated controls
Method in brief: as §2

AVEFA [9] = assay: Post-emergence herbicidal action against AVEFA; type: in vivo, Avena fatua; conditions: 80 g/ha, visual assessment after about 3 weeks
Method in brief: as §1

VIOTR [10] = assay: Pre-emergence herbicidal action against VIOTR; type: in vivo, Viola tricolor; conditions: 320 g/ha
Method in brief: as §2

SETVI [11] = assay: Pre-emergence herbicidal action against SETVI; type: in vivo, Setaria viridis; conditions: 320 g/ha, scored visually after 3 weeks vs untreated controls
Method in brief: as §2

ECHCG [12] = assay: Post-emergence herbicidal action against ECHCG; type: in vivo, Echinochloa crus-galli; conditions: 80 g/ha, visual assessment about 3 weeks after treatment vs untreated controls
Method in brief: as §1

DIGSA [13] = assay: Pre-emergence herbicidal action against DIGSA; type: in vivo, Digitaria sanguinalis; conditions: 320 g/ha, scored visually after 3 weeks vs untreated controls
Method in brief: as §2

AVEFA [14] = assay: Pre-emergence herbicidal action against AVEFA; type: in vivo, Avena fatua; conditions: 320 g/ha, scored visually after 3 weeks vs untreated controls
Method in brief: as §2

AMARE [15] = assay: Pre-emergence herbicidal action against AMARE; type: in vivo, Amaranthus retroflexus; conditions: 320 g/ha
Method in brief: as §2

MATIN = assay: Pre-emergence herbicidal action against MATIN; type: in vivo; conditions: 320 g/ha
Method in brief: as §2

ABUTH [16] = assay: Pre-emergence herbicidal action against ABUTH; type: in vivo, Abutylon threophrasti; conditions: 320 g/ha
Method in brief: as §2

AMARE [17] = assay: Post-emergence herbicidal action against AMARE; type: in vivo, Amaranthus retroflexus; conditions: 80 g/ha, visual assessment about 3 weeks after treatment vs untreated controls
Method: (§3) Seeds of monocotyledonous and dicotyledonous weed and crop plants are laid out in sandy loam soil in wood-fiber pots, covered with soil and cultivated in a greenhouse under good growth conditions. 2 to 3 weeks after sowing, the test plants are treated at the one-leaf stage. The compounds of the invention, formulated in the form of wettable powders (WP) or as emulsion concentrates (EC), are then sprayed onto the green parts of the plants as aqueous suspension or emulsion at a water application rate equating to 600 to 800 l/ha with addition of 0.2% wetting agent. After the test plants have been left to stand in the greenhouse under optimal growth conditions for about 3 weeks, the action of the preparations is assessed visually in comparison to untreated controls (herbicidal action in percent (%): 100% activity=the plants have died, 0% activity=like control plants).

VERPE [18] = assay: Post-emergence herbicidal action against VERPE; type: in vivo, Veronica persica; conditions: 80 g/ha, visual assessment about 3 weeks after treatment vs untreated controls
Method: as §3

ECHCG [19] = assay: Pre-emergence herbicidal action against ECHCG; type: in vivo, Echinochloa crus-galli; conditions: 320 g/ha, scored visually after 3 weeks vs untreated controls
Method in brief: as §2

ABUTH [20] = assay: Post-emergence herbicidal action against ABUTH; type: in vivo, Abutylon threophrasti; conditions: 80 g/ha, visual assessment about 3 weeks after treatment vs untreated controls
Method in brief: as §1

POLCO [21] = assay: Post-emergence herbicidal action against POLCO; type: in vivo, Polygonum convolvulus; conditions: 80 g/ha, visual assessment about 3 weeks after treatment vs untreated controls
Method: as §3

VIOTR [22] = assay: Post-emergence herbicidal action against VIOTR; type: in vivo, Viola tricolor; conditions: 80 g/ha, visual assessment about 3 weeks after treatment vs untreated controls
Method: as §3

PHBPU = assay: Post-emergence herbicidal action against PHBPU; type: in vivo; conditions: assessed visually after about 3 weeks, 100% = plants have died, 0% = like control plants
Method: as §3

Row | Compound | Post-emergence action against LOLRI in % (LOLRI [1]) [%] | Post-emergence action against ALOMY in % (ALOMY [2]) [%] | Post-emergence action against SETVI in % (SETVI [3]) [%] | Pre-emergence action against VERPE in % (VERPE [4]) [%] | Pre-emergence herbicidal action against LOLRI in % (LOLRI [5]) [%] | Pre-emergence action against POLCO in % (POLCO [6]) [%] | Post-emergence action against DIGSA in % (DIGSA [7]) [%] | Pre-emergence action against ALOMY in % (ALOMY [8]) [%] | Post-emergence action against AVEFA in % (AVEFA [9]) [%] | Pre-emergence action against VIOTR in % (VIOTR [10]) [%] | Pre-emergence action against SETVI in % (SETVI [11]) [%] | Post-emergence action against ECHCG in % (ECHCG [12]) [%] | Pre-emergence action against DIGSA in % (DIGSA [13]) [%] | Pre-emergence action against AVEFA in % (AVEFA [14]) [%] | Pre-emergence action against AMARE in % (AMARE [15]) [%] | Pre-emergence action against MATIN in % (MATIN) [%] | Pre-emergence action against ABUTH in % (ABUTH [16]) [%] | Pre-emergence action against ECHCG in % (ECHCG [19]) [%] | Post-emergence action against ABUTH in % (ABUTH [20]) [%] | Post-emergence action at 80 g/ha against PHBPU in % (PHBPU) [%] | further results
1 | CC#Cc1cc(C)c(C2=C(O)C3(CCC(COCC)C3)NC2=O)c(Cl)c1 (stereo not drawn) [Example I-02] | 100 | 100 | 100 | 90 | 100 | 100 | 90 | 100 | 90 | 100 | 100 | 100 | 100 | 100 | 100 | 90 | 100 | 100 | 80 | – | Post-emergence action against AMARE in % (AMARE [17]): 80%; Post-emergence action against VERPE in % (VERPE [18]): 90%
2 | CC#Cc1cc(Br)c(C2=C(O)C3(CCC(COC)C3)NC2=O)c(OC)c1 (stereo not drawn) [Example I-10] | 100 | 100 | 100 | 100 | 100 | 80 | 100 | 100 | – | 100 | 100 | 100 | 100 | 100 | – | – | – | 100 | – | – | Post-emergence action against POLCO in % (POLCO [21]): 80%
3 | CC#Cc1cc(C)c(C2=C(O)C3(CCC(COCC)C3)NC2=O)c(OC)c1 (stereo not drawn) [Example I-32] | 100 | 100 | – | – | 100 | – | 100 | 100 | 100 | 100 | 100 | 100 | 100 | 90 | – | – | – | 100 | 80 | – | Post-emergence action against VERPE in % (VERPE [18]): 80%; Post-emergence action against VIOTR in % (VIOTR [22]): 80%
4 | CC#Cc1cc(F)c(C2=C(O)C3(CCC(COC)C3)NC2=O)c(OC)c1 (stereo not drawn) [Example I-41] | 90 | 100 | 100 | – | 100 | – | 100 | – | 90 | – | 100 | 100 | 100 | 80 | – | – | – | – | – | 80 | –
5 | CC#Cc1cc(C)c(C2=C(O)C3(CCC(COCCC)C3)NC2=O)c(OC)c1 (stereo not drawn) [Example I-58] | 100 | 100 | 100 | – | 100 | – | 90 | 100 | – | 90 | 100 | 100 | 100 | 80 | 100 | 100 | – | 100 | – | 80 | Post-emergence action against VIOTR in % (VIOTR [22]): 80%
6 | CC#Cc1cc(C)c(C2=C(O)C3(CCC(COCCC)C3)NC2=O)c(Cl)c1 (stereo not drawn) [Example I-68] | 100 | 100 | 100 | – | 100 | – | 100 | 100 | – | 100 | 100 | 100 | 100 | 100 | 100 | 100 | 90 | 100 | – | 80 | Post-emergence action against VIOTR in % (VIOTR [22]): 80%
7 | CC#Cc1cc(C)c(C2=C(OC(=O)OCC)C3(CCC(COC)C3)NC2=O)c(F)c1 (stereo not drawn) [Example P-51] | 100 | 100 | – | – | 100 | 90 | 100 | 100 | 100 | 100 | 100 | 100 | 100 | 80 | 90 | – | 80 | 100 | 80 | – | Post-emergence action against POLCO in % (POLCO [21]): 80%
8 | CC#Cc1cc(C)c(C2=C(OC(=O)OCC)C3(CCC(COC)C3)NC2=O)c(F)c1 (stereo not drawn) [Example P-52] | 100 | 100 | – | – | 100 | 80 | 100 | 100 | 90 | 90 | 100 | 100 | 100 | 90 | 80 | – | – | 100 | 80 | – | Post-emergence action against AMARE in % (AMARE [17]): 80%; Post-emergence action against VERPE in % (VERPE [18]): 80%
9 | CC#Cc1cc(C)c(C2=C(OC(=O)OCC)C3(CCC(COCCC)C3)NC2=O)c(OC)c1 (stereo not drawn) [Example P-81] | 100 | 100 | 100 | 90 | 100 | 100 | 90 | 100 | 80 | 100 | 100 | 100 | 100 | 100 | 100 | 80 | – | 100 | – | 80 | –
